What was measured:
Format in all cases: in vitro ADME
Conditions in all cases: 100 μM KF, pooled HLMs
CYP2C19 = target: T1, CYP2C19 (Homo sapiens, UniProt P33261); assay: CYP2C19 inhibition in pooled human liver microsomes (S-mephenytoin 4-hydroxylation)
T1 construct: effects of KF on eight major CYP isoforms in human liver microsomes (HLMs); from tissue; host or cells: human liver microsomes
Procedure: (§1) All incubations were performed in triplicate, and the mean values were utilized. The typical incubation systems contained 100 mM potassium phosphate buffer (pH 7.4), NADPH generating system (1 mM NADP^+, 10 mM glucose-6-phosphate, 1 U/mL of glucose-6-phosphate dehydrogenase, and 4 mM MgCl2), the appropriate concentration of HLM, a corresponding probe substrate and KF (or positive inhibitor for different probe reactions) in a final volume of 200 μL.
(§2) The concentration of KF was 100 μM according literatures (Lang et al. [2016]; Liu et al. [2017]; Zhang et al. [2019]), and the positive inhibitor concentrations were as follows: 10 μM furafylline for CYP1A2, 1 μM ketoconazole for CYP3A4, 10 μM tranylcypromine for CYP2A6, 50 μM clomethiazole for CYP2E1, 10 μM quinidine for CYP2D6, 10 μM sulfaphenazole for CYP2C9, 50 μM tranylcypromine for CYP2C19, 5 μM montelukast for CYP2C8. Probe substrates, positive inhibitors (except for dextromethorphan and quinidine which were dissolved in water) and KF were dissolved in methanol, with a final concentration of 1% (v/v), and 1% neat methanol was added to the incubations without inhibitor. […] The instrument used in this study were Agilent 1260 series instrument with DAD and FLD detector, and the quantitative assay for the corresponding metabolites was performed as previously reported (Lang et al. [2016]; Zhang et al. 2016). […]

CYP2D6 = target: T2, CYP2D6 (Homo sapiens, UniProt P10635); assay: CYP2D6 inhibition in pooled human liver microsomes (dextromethorphan O-demethylation)
T2 construct: effects of KF on eight major CYP isoforms in human liver microsomes (HLMs); from tissue; host or cells: human liver microsomes
T2 sequence (P10635 whole entry, canonical isoform): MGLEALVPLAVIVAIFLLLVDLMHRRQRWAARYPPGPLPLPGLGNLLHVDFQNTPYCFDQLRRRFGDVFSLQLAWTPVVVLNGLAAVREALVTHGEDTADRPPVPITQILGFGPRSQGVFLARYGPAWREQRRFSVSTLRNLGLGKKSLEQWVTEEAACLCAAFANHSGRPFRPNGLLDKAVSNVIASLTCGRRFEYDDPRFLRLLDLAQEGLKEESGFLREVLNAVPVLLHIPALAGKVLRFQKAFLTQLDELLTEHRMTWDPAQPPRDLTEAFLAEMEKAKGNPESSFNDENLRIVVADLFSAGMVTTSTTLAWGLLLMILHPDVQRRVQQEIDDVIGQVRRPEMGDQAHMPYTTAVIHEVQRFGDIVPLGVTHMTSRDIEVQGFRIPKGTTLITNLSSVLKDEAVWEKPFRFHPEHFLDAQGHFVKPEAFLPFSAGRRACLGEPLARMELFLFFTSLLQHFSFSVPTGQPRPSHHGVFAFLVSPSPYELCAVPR
Procedure: as §1, §2

CYP2E1 = target: T3, CYP2E1 (Homo sapiens, UniProt P05181); assay: CYP2E1 inhibition in pooled human liver microsomes (chlorzoxazone 6-hydroxylation)
T3 construct: effects of KF on eight major CYP isoforms in human liver microsomes (HLMs); from tissue; host or cells: human liver microsomes
T3 sequence (P05181 whole entry, canonical isoform): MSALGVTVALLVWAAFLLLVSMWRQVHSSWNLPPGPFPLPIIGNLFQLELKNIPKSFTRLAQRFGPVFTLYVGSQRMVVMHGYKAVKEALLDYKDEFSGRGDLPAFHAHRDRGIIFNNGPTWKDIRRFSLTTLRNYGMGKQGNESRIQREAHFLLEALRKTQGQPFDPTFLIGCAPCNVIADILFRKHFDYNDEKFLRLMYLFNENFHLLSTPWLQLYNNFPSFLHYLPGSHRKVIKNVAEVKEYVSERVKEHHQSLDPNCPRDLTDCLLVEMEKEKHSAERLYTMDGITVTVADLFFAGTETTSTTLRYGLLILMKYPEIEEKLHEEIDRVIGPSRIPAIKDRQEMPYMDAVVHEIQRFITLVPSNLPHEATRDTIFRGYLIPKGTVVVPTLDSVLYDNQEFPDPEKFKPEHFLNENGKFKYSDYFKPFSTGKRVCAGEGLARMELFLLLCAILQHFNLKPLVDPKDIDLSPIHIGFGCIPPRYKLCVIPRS
Procedure: as §1, §2

CYP2A6 = target: T4, CYP2A6 (Homo sapiens, UniProt P11509); assay: CYP2A6 inhibition in pooled human liver microsomes (coumarin 7-hydroxylation)
T4 construct: effects of KF on eight major CYP isoforms in human liver microsomes (HLMs); from tissue; host or cells: human liver microsomes
T4 sequence (P11509 1-494): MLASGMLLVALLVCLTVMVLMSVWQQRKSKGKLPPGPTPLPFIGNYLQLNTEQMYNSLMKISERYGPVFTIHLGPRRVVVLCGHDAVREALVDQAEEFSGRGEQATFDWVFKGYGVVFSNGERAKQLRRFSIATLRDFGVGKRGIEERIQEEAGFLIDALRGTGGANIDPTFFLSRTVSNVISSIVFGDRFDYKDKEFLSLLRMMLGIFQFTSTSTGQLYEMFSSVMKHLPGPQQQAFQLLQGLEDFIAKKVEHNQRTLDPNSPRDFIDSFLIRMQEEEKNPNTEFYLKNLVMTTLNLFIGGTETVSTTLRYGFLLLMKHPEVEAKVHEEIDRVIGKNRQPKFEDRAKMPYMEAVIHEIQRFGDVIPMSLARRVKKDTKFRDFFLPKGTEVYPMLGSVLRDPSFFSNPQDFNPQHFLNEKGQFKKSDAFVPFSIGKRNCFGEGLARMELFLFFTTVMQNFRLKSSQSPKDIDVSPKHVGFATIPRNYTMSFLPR
Procedure: as §1, §2

CYP2C8 = target: T5, CYP2C8 (Homo sapiens, UniProt P10632); assay: CYP2C8 inhibition in pooled human liver microsomes (paclitaxel 6α-hydroxylation)
T5 construct: effects of KF on eight major CYP isoforms in human liver microsomes (HLMs); from tissue; host or cells: human liver microsomes
T5 sequence (P10632 1-490): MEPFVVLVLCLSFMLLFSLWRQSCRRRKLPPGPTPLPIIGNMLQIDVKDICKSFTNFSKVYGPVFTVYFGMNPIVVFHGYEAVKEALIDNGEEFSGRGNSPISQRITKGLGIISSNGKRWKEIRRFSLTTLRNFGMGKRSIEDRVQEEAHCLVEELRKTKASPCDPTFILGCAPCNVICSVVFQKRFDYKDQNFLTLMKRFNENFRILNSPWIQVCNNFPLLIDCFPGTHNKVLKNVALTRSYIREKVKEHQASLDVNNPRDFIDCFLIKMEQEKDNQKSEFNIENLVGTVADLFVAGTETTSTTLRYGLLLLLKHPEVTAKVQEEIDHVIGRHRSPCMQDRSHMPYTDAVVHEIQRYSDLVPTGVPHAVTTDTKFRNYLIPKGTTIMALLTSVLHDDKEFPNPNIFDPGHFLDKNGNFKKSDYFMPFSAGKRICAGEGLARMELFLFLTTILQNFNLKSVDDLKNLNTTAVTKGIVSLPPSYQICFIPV
Procedure: as §1, §2

T1 sequence (P33261 whole entry, canonical isoform): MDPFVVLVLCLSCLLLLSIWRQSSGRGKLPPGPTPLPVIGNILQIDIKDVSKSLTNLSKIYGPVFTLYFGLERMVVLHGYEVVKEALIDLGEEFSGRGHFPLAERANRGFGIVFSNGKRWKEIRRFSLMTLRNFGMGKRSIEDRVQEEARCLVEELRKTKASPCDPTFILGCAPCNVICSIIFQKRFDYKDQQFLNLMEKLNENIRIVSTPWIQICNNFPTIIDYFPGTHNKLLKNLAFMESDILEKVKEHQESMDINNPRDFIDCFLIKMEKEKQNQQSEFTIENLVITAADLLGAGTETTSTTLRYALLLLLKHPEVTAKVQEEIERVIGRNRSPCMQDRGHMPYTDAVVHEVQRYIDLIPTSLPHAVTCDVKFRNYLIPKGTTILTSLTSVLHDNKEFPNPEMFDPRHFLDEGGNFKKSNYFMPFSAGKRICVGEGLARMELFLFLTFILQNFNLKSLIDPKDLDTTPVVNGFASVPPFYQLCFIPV

Inhibition of CYP2C19 activity (CYP2C19): did not inhibit | Inhibition of CYP2D6 activity (CYP2D6): did not inhibit | Inhibition of CYP2E1 activity (CYP2E1): did not inhibit | Inhibition of CYP2A6 activity (CYP2A6): did not inhibit | Inhibition of CYP2C8 activity (CYP2C8): did not inhibit
Compound: C[C@@H]1O[C@@H](Oc2cc(O)c3c(=O)c(O[C@@H]4O[C@@H](C)[C@H](O)[C@@H](O)[C@H]4O)c(-c4ccc(O)cc4)oc3c2)[C@H](O)[C@H](O)[C@H]1O [KF, Kaempferitrin]
